These results are taken from patent publication US20060088942A1, “Measuring nitric oxide in blood gases and treatments based thereon” (priority 2002, published 2006).

Experiment [1] can be described thus: Infusion in patient with unstable angina (Example II). The format is in vivo, human. An excerpt:
A person is admitted to a hospital with unstable angina. The patient is given I.V. nitroglycerin, heparin and a beta blocker. However, the patient continues to experience chest pain at rest. The patient's normal NO level is known from past testing. […] Infusion at a rate of 5 nmol/min of NO in 0.9% NaCl is effected. The chest pain resolves.

The nature of experiment [2]: Infusion in patient with primary pulmonary hypertension class II (Example III). The format is in vivo, human. From the text:
A person with primary pulmonary hypertension class II presents complaining with shortness of breath. The patient's normal NO level is know from prior testing. […] Infusion of NO in 0.9% NaCl at a rate of 5 nmol/min of NO is effected. The shortness of breath symptom resolves. After three days of therapy, pulmonary artery pressure has dropped 5 mm of mercury.

The next experiment deals with outdated red blood cells. In words: Organ chamber bioassay of vasodilator response at low pO2, outdated red blood cells (Example V). The format is cell-based. Conditions: for relaxations: 1:250 molar ratio NO or nitrite to hemoglobin, deoxygenated with argon, then oxygenated by air, FIG. 3. An excerpt: Samples from each set were deoxygenated by bubbling argon gas therethrough and then admixed with PBS, PBS with NO dissolved therein or PBS with sodium nitrite dissolved therein. The treatments loaded the red blood cells with 1:250 molar ratio NO or nitrite to hemoglobin. The red blood cells were then oxygenated by exposure to air.

A further experiment concerns Red cells. In words: Storage of red cells incubated with NO at weekly intervals (Example VI). In kind it is cell-based. Conditions: 1:250 molar ratio NO to hemoglobin, 10 minutes at weekly intervals; at 8 weeks. As to the method: Red cells are incubated at a molar ratio of 1:250 NO to hemoglobin for 10 minutes at weekly intervals. At 8 weeks, NO levels and vasodilator response are preserved.

Experiment [3] is described as follows: Transfusion of NO-doped blood unit in patient with severe coronary artery disease (Example VII). The format is in vivo, human. Conditions: person; second blood unit doped with NO, 1:250 molar ratio of NO to hemoglobin.
Experiment [4] has as its system native fresh red blood cells. As to the method:
The samples were deoxygenated by placing them in a bioassay bath at low pO2. Then, in paired samples, sodium nitrite (1:200 molar ratio of nitite to hemoglobin in phosphate buffered saline) was added to the deoxygenated red blood cells for 10 minutes. The samples were then re-oxygenated by reintroducing air followed by shaking.

Another experiment addresses hemoglobin (Homo sapiens, UniProt P68871+P69905). Conditions: PBS pH 7.4, 300 μM nitrite, heme 1 mM; compared to SNO-oxyhemoglobin samples.
For experiment [5] the following is noted: anaerobic saturated solution in saline infused at 100 nmol/min.

Structures are written as SMILES.

Chain of hemoglobin (P69905 2-142 limits assumed): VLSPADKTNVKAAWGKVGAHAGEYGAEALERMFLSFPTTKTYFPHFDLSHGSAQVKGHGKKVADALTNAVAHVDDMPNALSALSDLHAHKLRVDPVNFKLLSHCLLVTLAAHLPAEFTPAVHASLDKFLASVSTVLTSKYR
Chain of hemoglobin (P68871 2-147 limits assumed): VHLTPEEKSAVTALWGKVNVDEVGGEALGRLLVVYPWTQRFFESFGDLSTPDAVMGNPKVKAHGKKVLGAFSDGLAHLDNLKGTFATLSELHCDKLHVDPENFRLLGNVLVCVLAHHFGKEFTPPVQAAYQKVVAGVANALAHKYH
Method for hemoglobin: For assay by EPR, spectroscopy was carried out as described in Gow, A. J., et al, Proc. Natl. Acad. Scie. […] SNO-oxyhemoglobin samples (0.5 mM protein) for comparison were prepared as described in Jia, L., et al, Nature, 380, 221-226 (1996).
Comparison was to SNO-oxyhemoglobin samples (0.5 mM protein) prepared as described in Jia, L., et al, Nature 380, 221-226 (1996).

Consider `[N]=O` [NO, nitric oxide], for which the chest pain result in experiment [1] (person, unstable angina, infusion 5 nmol/min of NO in 0.9% NaCl) is given as “resolves”. The “drop of pulmonary artery pressure” value in experiment [2] (after three days of therapy, NO 5 nmol/min) is listed as 5 mm of mercury. Further, in experiment [2] (person, infusion of NO in 0.9% NaCl at 5 nmol/min), the “shortness of breath symptom” value is “resolves”. In addition, the relaxations entry in the experiment on outdated red blood cells is “improved and effectively normalized”. The vasodilator response result with Red cells is given as “preserved”. Further, in experiment [3], the “chest pain on transfusion” value is on record as “not experienced”.

`O=NO` [nitrite]: the chest pain result in experiment [1] (nitrite additionally given at 100 nmol/min with the NO infusion) is given as “resolves more quickly”. Also, the relaxations result in the experiment on outdated red blood cells is “improved and effectively normalized”. In addition, the vasodilator response entry in experiment [4] was “no effect”. Also, the “oxygen delivery improving activity identified with NO” value on hemoglobin is “facilitated”.

Consider `O=NO` [sodium nitrite], for which, in the experiment on outdated red blood cells (1:200 molar ratio nitrite to hemoglobin in PBS, added to deoxygenated cells for 10 minutes, then re-oxygenated, FIG. 2), the vasodilator response result is reported as “normalize”. In addition, the oxygen delivery result in experiment [5] is “Improved”.
